# Data from patent publication US20200131161A1, “NOVEL POCHONIOLIDE COMPOUND AND USE THEREOF” (THE KITASATO INSTITUTE, priority 2017, published 2020).
# Experiments:
# [1] = Solubility (physicochemical properties); details: DMSO, acetone, water, methanol
# [2] = Acrylamide produced by Maillard reaction using a mixture of asparagine and glucose (Morinaga acrylamide EIA kit); details: compound at 6 mg/ml final concentration; heated in autoclave 121° C. 20 minutes; untreated sample 51 ng/ml
# Procedure: An aqueous solution (0.25 ml) of 100 mg/ml glucose (Wako Pure Chemical Corporation) treated with Chelex 100 (Bio-Rad Laboratories, Inc.) and an aqueous solution (0.5 ml) of 50 mg/ml asparagine (Wako Pure Chemical Corporation) treated with Chelex 100 (Bio-Rad Laboratories, Inc.) were introduced into a 1.5-ml microtube. Pochoniolides A, B, and C dissolved in methanol to a fmal concentration of 6 mg/ml and dihydroquercetin (final concentration 10% methanol) as a positive control were added, and the total amount of the solution was adjusted to 1.0 ml with the addition of distilled water. After the resultant was heated in an autoclave at 121° C. for 20 minutes, the amount of acrylamide produced was measured with the use of Morinaga acrylamide EIA kit (Morinaga Institute of Biological Science, Inc.) in accordance with the protocols.
# [3] = Effects for decreasing acrylamide in model food (french fries); details: test compound at final concentration of 1% applied to formed potatoes, fried in oil at 170 to 200 degrees for 1 minute; for concentration of acrylamide produced: control 7 ppm
# Procedure: Pochoniolides B and C were evaluated in terms of effects of decreasing acrylamide in a model food (french fries) using dihydroquercetin as a positive control. Commercially available frozen french fries (raw) were thawed and a portion of 10 g was separated. The portion of 10 g was ground in a mortar and formed into individual homogeneous portions of 1 g each, followed by forming. The test compounds were dissolved in a small amount of ethanol to a final concentration of 1%. The ethanol solution was homogeneously applied to the formed potatoes. The potatoes were fried in oil at 170 to 200 degrees for 1 minute, and measurement of the acrylamide concentration was requested to Morinaga Institute of Biological Science, Inc. The results are shown in FIG. 7. While the concentration of acrylamide produced was 7 ppm with the addition of control sample, the concentration of acrylamide produced was 4 ppm with the addition of dihydroquercetin as a positive control. No effects of pochoniolide B for decreasing the amount of acrylamide production were observed. The concentration of acrylamide produced was 2 ppm in the group to which pochoniolide C was added.
# [4] = test system: Bacillus subtilis ATCC 6633, Micrococcus luteus ATCC 9341, Escherichia coli NIHJKB213, Xanthomonas campestris pv. oryzae KB 88, Candida albicans KF1, Mucor …; type: cell-based
# [5] = test system: HeLaS3 cells, A549 cells, H1299 cells, HT29 cells, Pancl cells, Jurkat cells, HL60 cells, THP-1 cells; test: Cytotoxicity test in vitro, cell viability by WST-8; type: cell-based; details: at 100 μM, all eight human cell lines, culture for 2 days
# Procedure: Cytotoxicity of the pochoniolides of the present invention on various cells was tested. Human cervical cancer-derived HeLaS3 cells, human lung cancer-derived A549 cells, human lung cancer-derived H1299 cells (not expressing p53), human colon adenocarcinoma HT29 cells, human pancreatic cancer […], human acute T cell leukemia-derived Jurkat cells, human promyelocyte leukemia HL60 cells, and human acute monocytic leukemia THP-1 cells were subjected to evaluation of cytotoxicity by measuring cell viability using WST-8 (Dojindo Laboratories). The cells that had reached 80% confluence were counted using a hemocytometer, and a cell suspension was prepared. The cell suspension was dispensed into each well of a 96-well microplate at 100 μl/well using multichannel pipettes. Only a medium was added to a blank (background) well in an amount of 100 μl. HeLaS3 cells, A549 cells, H1299 cells, HT29 cells, and […] cultured for 24 hours in a CO2-incubator, Jurkat cells, HL60 cells, and THP-1 cells were cultured for 1 to 2 hours in a CO2-incubator. Solutions of the compounds diluted 3-fold from 10 mM to 100 μM in methanol or dimethyl sulfoxide were prepared, and the resulting solutions were then added at 1 μl/well (final concentration: 100 μM to 1 μM). After culture was performed for 2 days, 10 μl of the WST-8 reagent was introduced into each well, culture was performed for 30 to 60 minutes, and the absorbance at 460 nm was measured. The cell viability was determined in accordance with the following equation. Cell viability (%)=[(As-Ab)/(Ac-Ab)]×100 • As: Absorbance of sample (a well containing cells, pochoniolide A, B, or C, and a WST-8 solution) • Ac: Absorbance of control (a well containing cells and a WST-8 solution without pochoniolide A, B, or C) • Ab: Absorbance of blank (a well containing a medium and a WST-8 solution without cells)
Compound,Solubility [1],amount of acrylamide produced [2] [ng/mL],effects for decreasing the amount of acrylamide production [3],antibacterial activity (growth-inhibiting circle) [4],cytotoxicity (cell viability) [5],concentration of acrylamide produced [3] [ppm]
pochoniolide B,"easily soluble in DMSO and acetone, but hardly soluble in water and methanol",9,No effects,no antibacterial activity,no toxicity,–
O=C(O)CC1OC(=O)C=C1c1coc2cc(O)cc(O)c2c1=O (stereo not shown) [pochoniolide A],"easily soluble in DMSO and acetone, but hardly soluble in water and methanol",53,–,no antibacterial activity,no toxicity,–
"O=C1c2c(O)cc(O)cc2O[C@H](c2ccc(O)c(O)c2)[C@H]1O [dihydroquercetin, reference compound]",–,28,–,–,–,4
O=C(O)CC1OC(=O)C=C1C1Oc2cc(O)cc(O)c2C(=O)C1O (stereo not shown) [pochoniolide C],"easily soluble in DMSO and acetone, but hardly soluble in water and methanol",18,–,no antibacterial activity,no toxicity,2
